Experimental data published in ChEMBL document CHEMBL1140860, “Synthesis and evaluation of dihydroartemisinin and dihydroartemisitene acetal dimers showing anticancer and antiprotozoal activity” (Bioorg Med Chem, 2009).

How the values were obtained:
SF-295 = experiment: Growth inhibition of human SF295 cells after 48 hrs by sulforhodamine B assay; assay type: functional; details: SF-295, 48 h
KM12 = experiment: Growth inhibition of human KM12 cells after 48 hrs by sulforhodamine B assay; assay type: functional; details: KM12, 48 h
TK-10 = experiment: Growth inhibition of human TK10 cells after 48 hrs by sulforhodamine B assay; assay type: functional; details: TK-10, 48 h
NCI-H460 = experiment: Growth inhibition of human NCI-H460 cells after 48 hrs by sulforhodamine B assay; assay type: functional; details: NCI-H460, 48 h
OVCAR-3 = experiment: Growth inhibition of human OVCAR-3 cells after 48 hrs by sulforhodamine B assay; assay type: functional; details: OVCAR-3, 48 h
HOP-92 = experiment: Growth inhibition of human HOP92 cells after 48 hrs by sulforhodamine B assay; assay type: functional; details: HOP-92, 48 h
Plasmodium falciparum = experiment: Antimalarial activity after 72 hrs against chloroquine-sensitive Plasmodium falciparum D6 infected in erythrocytes by LDH assay; assay type: functional, organism-based; details: D6, 72 h
MOLT-4 = experiment: Growth inhibition of human MOLT4 cells after 48 hrs by sulforhodamine B assay; assay type: functional; details: MOLT-4, 48 h
PC-3 = experiment: Growth inhibition of human PC3 cells after 48 hrs by sulforhodamine B assay; assay type: functional; details: PC-3, 48 h
UACC-257 = experiment: Growth inhibition of human UACC257 cells after 48 hrs by sulforhodamine B assay; assay type: functional; details: UACC-257, 48 h
A549 = experiment: Growth inhibition of human A549 cells after 48 hrs by sulforhodamine B assay; assay type: functional; details: A549, 48 h
IGROV-1 = experiment: Growth inhibition of human IGROV1 cells after 48 hrs by sulforhodamine B assay; assay type: functional; details: IGROV-1, 48 h
HCT-116 = experiment: Growth inhibition of human HCT116 cells after 48 hrs by sulforhodamine B assay; assay type: functional; details: HCT-116, 48 h
Malme-3M = experiment: Growth inhibition of human MALME-3M cells after 48 hrs by sulforhodamine B assay; assay type: functional
ACHN = experiment: Growth inhibition of human ACHN cells after 48 hrs by sulforhodamine B assay; assay type: functional
OVCAR-8 = experiment: Growth inhibition of human OVCAR8 cells after 48 hrs by sulforhodamine B assay; assay type: functional; details: OVCAR-8, 48 h
NCI-H226 = experiment: Growth inhibition of human NCI-H226 cells after 48 hrs by sulforhodamine B assay; assay type: functional; details: NCI-H226, 48 h
BT-549 = experiment: Growth inhibition of human BT549 cells after 48 hrs by sulforhodamine B assay; assay type: functional; details: BT-549, 48 h
CAKI-1 = experiment: Growth inhibition of human Caki1 cells after 48 hrs by sulforhodamine B assay; assay type: functional; details: CAKI-1, 48 h
SK-MEL-28 = experiment: Growth inhibition of human SK-MEL-28 cells after 48 hrs by sulforhodamine B assay; assay type: functional; details: SK-MEL-28, 48 h
HT-29 = experiment: Growth inhibition of human HT-29 cells after 48 hrs by sulforhodamine B assay; assay type: functional; details: HT-29, 48 h
LOX IMVI = experiment: Growth inhibition of human LOXIMVI cells after 48 hrs by sulforhodamine B assay; assay type: functional
SW-620 = experiment: Growth inhibition of human SW620 cells after 48 hrs by sulforhodamine B assay; assay type: functional; details: SW-620, 48 h
MDA-MB-435 = experiment: Growth inhibition of human MDA-MB-435 cells after 48 hrs by sulforhodamine B assay; assay type: functional; details: MDA-MB-435, 48 h
786-0 = experiment: Growth inhibition of human 786-0 cells after 48 hrs by sulforhodamine B assay; assay type: functional; details: 786-0, 48 h
OVCAR-5 = experiment: Growth inhibition of human OVCAR5 cells after 48 hrs by sulforhodamine B assay; assay type: functional; details: OVCAR-5, 48 h
U-251 = experiment: Growth inhibition of human U251 cells after 48 hrs by sulforhodamine B assay; assay type: functional; details: U-251, 48 h
MDA-MB-231 = experiment: Growth inhibition of human MDA-MB-231 cells after 48 hrs by sulforhodamine B assay; assay type: functional; details: MDA-MB-231, 48 h
HOP-62 = experiment: Growth inhibition of human HOP62 cells after 48 hrs by sulforhodamine B assay; assay type: functional; details: HOP-62, 48 h
SK-MEL-5 = experiment: Growth inhibition of human SK-MEL-5 cells after 48 hrs by sulforhodamine B assay; assay type: functional; details: SK-MEL-5, 48 h
[1] = Growth inhibition of human Hs 578T cells after 48 hrs by sulforhodamine B assay; assay type: functional
NCI-H522 = experiment: Growth inhibition of human NCI-H522 cells after 48 hrs by sulforhodamine B assay; assay type: functional; details: NCI-H522, 48 h
CCRF-CEM = experiment: Growth inhibition of human CCRF-CEM cells after 48 hrs by sulforhodamine B assay; assay type: functional
EKVX = experiment: Growth inhibition of human EKVX cells after 48 hrs by sulforhodamine B assay; assay type: functional
[2] = Growth inhibition of human […] cells after 48 hrs by sulforhodamine B assay; assay type: functional
SF-268 = experiment: Growth inhibition of human SF268 cells after 48 hrs by sulforhodamine B assay; assay type: functional; details: SF-268, 48 h
NCI/ADR-RES = experiment: Growth inhibition of human NCI/ADR-RES cells after 48 hrs by sulforhodamine B assay; assay type: functional
M14 = experiment: Growth inhibition of human M14 cells after 48 hrs by sulforhodamine B assay; assay type: functional; details: M14, 48 h
HCT-15 = experiment: Growth inhibition of human HCT15 cells after 48 hrs by sulforhodamine B assay; assay type: functional; details: HCT-15, 48 h
A498 = experiment: Growth inhibition of human A498 cells after 48 hrs by sulforhodamine B assay; assay type: functional; details: A498, 48 h
HL-60 = experiment: Growth inhibition of human HL-60(TB) cells after 48 hrs by sulforhodamine B assay; assay type: functional; details: HL-60, 48 h
MCF7 = experiment: Growth inhibition of human MCF7 cells after 48 hrs by sulforhodamine B assay; assay type: functional; details: MCF7, 48 h
RXF 393 = experiment: Growth inhibition of human RXF393 cells after 48 hrs by sulforhodamine B assay; assay type: functional; details: RXF 393, 48 h
UACC-62 = experiment: Growth inhibition of human UACC62 cells after 48 hrs by sulforhodamine B assay; assay type: functional; details: UACC-62, 48 h
[3] = Selectivity index, ratio of TC50 for african green monkey (Cercopithecus aethiops) Vero cells to IC50 for chloroquine-resistant Plasmodium falciparum W2; assay type: toxicity, cell-based
MDA-N = experiment: Growth inhibition of human MDA-N cells after 48 hrs by sulforhodamine B assay; assay type: functional
HCC 2998 = experiment: Growth inhibition of human HCC2998 cells after 48 hrs by sulforhodamine B assay; assay type: functional; details: HCC 2998, 48 h
[4] = Cytotoxicity against african green monkey Vero cells after 48 hrs by neutral red assay; assay type: cell-based; details: chlorocebus sabaeus, read-out: TC50
[5] = Selectivity index, ratio of TC50 for african green monkey (Cercopithecus aethiops) Vero cells to IC50 for chloroquine-sensitive Plasmodium falciparum D6; assay type: toxicity, cell-based
SR = experiment: Growth inhibition of human SR cells after 48 hrs by sulforhodamine B assay; assay type: functional

**Q.** Which results are given for `C[C@H]1[C@@H](OCC(CO[C@H]2O[C@@H]3O[C@@]4(C)CC[C@H]5[C@H](C)CC[C@@H]([C@H]2C)[C@@]35OO4)OC(=O)CCC(=O)O)O[C@@H]2O[C@@]3(C)CC[C@H]4[C@H](C)CC[C@@H]1[C@@]24OO3` (some centres undefined)?
**A.** GI50 (SF-295): 34 nM; GI50 (KM12): < 10 nM; GI50 (TK-10): 211 nM; GI50 (NCI-H460): 33 nM; GI50 (OVCAR-3): 20 nM; GI50 (HOP-92): 121 nM; IC50 (Plasmodium falciparum): 1400 nM; GI50 (MOLT-4): 290 nM; GI50 (PC-3): < 10 nM; GI50 (UACC-257): 46 nM; GI50 (A549): 69 nM; GI50 (IGROV-1): 11100 nM; GI50 (HCT-116): < 10 nM; GI50 (Malme-3M): 4050 nM; GI50 (ACHN): 126 nM; GI50 (OVCAR-8): 15 nM; GI50 (NCI-H226): 48 nM; GI50 (BT-549): 724 nM; GI50 (CAKI-1): 44 nM; GI50 (SK-MEL-28): 8380 nM; GI50 (HT-29): < 10 nM; GI50 (LOX IMVI): < 10 nM; GI50 (SW-620): 29 nM; GI50 (MDA-MB-435): 13 nM; GI50 (786-0): 23 nM; GI50 (OVCAR-5): < 10 nM; GI50 (U-251): < 10 nM; GI50 (MDA-MB-231): 345 nM; GI50 (HOP-62): 86 nM; GI50 (SK-MEL-5): 147 nM; GI50 [1]: 186 nM; GI50 (NCI-H522): 63 nM; GI50 (CCRF-CEM): 78 nM; GI50 (EKVX): 470 nM; GI50 [2]: < 10 nM; GI50 (SF-268): 2180 nM; GI50 (NCI/ADR-RES): 207 nM; GI50 (M14): < 10 nM; GI50 (HCT-15): < 10 nM; GI50 (A498): 13800 nM; GI50 (HL-60): 11 nM; GI50 (MCF7): < 10 nM; GI50 (RXF 393): < 10 nM; GI50 (UACC-62): 77 nM

**Q.** With `C[C@H]1[C@H](OCCO[C@H]2O[C@@H]3O[C@@]4(C)CC[C@H]5[C@H](C)CC[C@@H]([C@H]2C)[C@@]35OO4)O[C@@H]2O[C@@]3(C)CC[C@H]4[C@H](C)CC[C@@H]1[C@@]24OO3` as the compound, how does the GI50 (SF-295) read?
**A.** 1100 nM

**Q.** What about the GI50 (KM12) of the same compound?
**A.** 33 nM

**Q.** And the GI50 (TK-10)?
**A.** 64 nM

**Q.** And the GI50 (NCI-H460)?
**A.** 46 nM

**Q.** And the GI50 (OVCAR-3)?
**A.** 1280 nM

**Q.** And the GI50 (HOP-92)?
**A.** 52 nM

**Q.** And the IC50 (Plasmodium falciparum)?
**A.** 31900 nM

**Q.** And the GI50 (MOLT-4)?
**A.** 15 nM

**Q.** What about the GI50 (PC-3) of the same compound?
**A.** 22 nM

**Q.** And the GI50 (UACC-257)?
**A.** 54 nM

**Q.** And the GI50 (A549)?
**A.** 59 nM

**Q.** And the GI50 (IGROV-1)?
**A.** 8280 nM

**Q.** And the GI50 (HCT-116)?
**A.** 30 nM

**Q.** And the selectivity ratio [3]?
**A.** > 37

**Q.** And the GI50 (Malme-3M)?
**A.** 235 nM

**Q.** What about the GI50 (ACHN) of the same compound?
**A.** 224 nM

**Q.** What about the GI50 (OVCAR-8) of the same compound?
**A.** 34 nM

**Q.** And the GI50 (NCI-H226)?
**A.** 9540 nM

**Q.** What about the GI50 (BT-549) of the same compound?
**A.** 74 nM

**Q.** And the GI50 (CAKI-1)?
**A.** 90 nM

**Q.** And the GI50 (MDA-N)?
**A.** 61 nM

**Q.** What about the GI50 (SK-MEL-28) of the same compound?
**A.** 727 nM

**Q.** And the GI50 (HCC 2998)?
**A.** 67 nM

**Q.** What about the GI50 (HT-29) of the same compound?
**A.** 38 nM

**Q.** What about the GI50 (LOX IMVI) of the same compound?
**A.** 30 nM

**Q.** And the GI50 (SW-620)?
**A.** 25 nM

**Q.** What about the GI50 (MDA-MB-435) of the same compound?
**A.** 45 nM

**Q.** What about the GI50 (786-0) of the same compound?
**A.** 324 nM

**Q.** What about the GI50 (OVCAR-5) of the same compound?
**A.** 59 nM

**Q.** And the GI50 (U-251)?
**A.** 49 nM

**Q.** And the GI50 (MDA-MB-231)?
**A.** 534 nM

**Q.** What about the GI50 (HOP-62) of the same compound?
**A.** 11600 nM

**Q.** And the GI50 (SK-MEL-5)?
**A.** 34 nM

**Q.** What about the CC50 at 48 h [4] of the same compound?
**A.** > 800000 nM

**Q.** What about the GI50 [1] of the same compound?
**A.** 7650 nM

**Q.** And the GI50 (NCI-H522)?
**A.** 680 nM

**Q.** What about the selectivity ratio [5] of the same compound?
**A.** > 25

**Q.** What about the GI50 (CCRF-CEM) of the same compound?
**A.** 25 nM

**Q.** What about the GI50 (EKVX) of the same compound?
**A.** 40 nM

**Q.** And the GI50 [2]?
**A.** < 8 nM

**Q.** What about the GI50 (SF-268) of the same compound?
**A.** 7540 nM

**Q.** What about the GI50 (NCI/ADR-RES) of the same compound?
**A.** 55 nM

**Q.** What about the GI50 (M14) of the same compound?
**A.** 7600 nM

**Q.** And the GI50 (HCT-15)?
**A.** 17 nM

**Q.** And the GI50 (SR)?
**A.** 25 nM

**Q.** What about the GI50 (A498) of the same compound?
**A.** 8110 nM

**Q.** What about the GI50 (HL-60) of the same compound?
**A.** 15 nM

**Q.** What about the GI50 (MCF7) of the same compound?
**A.** 28 nM

**Q.** What about the GI50 (RXF 393) of the same compound?
**A.** 54 nM

**Q.** What about the GI50 (UACC-62) of the same compound?
**A.** 72 nM
